Measurements: PubChem BioAssay (NCI)
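Cells were grown in 96-well plates and exposed to each compound for 48 hours at five concentrations; endpoints were interpolated linearly between bracketing concentrations, or set to the highest concentration if not reached. Here, GI50 denotes the concentration required for 50% inhibition of growth. TGI: total growth inhibition.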

Tests used:
Assay in all cases: NCI anticancer screen, dose series, 48 h
A498 renal = tested on: A498 renal
BT-549 breast = tested on: BT-549 breast
HS 578T breast = tested on: HS 578T breast
LOX IMVI melanoma = tested on: LOX IMVI melanoma
NCI-H23 lung = tested on: NCI-H23 lung
OVCAR-8 ovarian = tested on: OVCAR-8 ovarian
SK-MEL-28 melanoma = tested on: SK-MEL-28 melanoma
SNB-19 CNS = tested on: SNB-19 CNS
UACC-257 melanoma = tested on: UACC-257 melanoma
UACC-62 melanoma = tested on: UACC-62 melanoma

## CC(NC(=O)C(NC(=O)CNC(=O)OC(C)(C)C)C(C)C)C(=O)Oc1c(Cl)c(Cl)c(Cl)c(Cl)c1Cl (stereo not given)
A498 renal
  TGI: 45 µM
BT-549 breast
  TGI: 51.2 µM
HS 578T breast
  TGI: 50.1 µM
LOX IMVI melanoma
  TGI: 32.5 µM
NCI-H23 lung
  TGI: 29.5 µM
OVCAR-8 ovarian
  TGI: 40.8 µM
SK-MEL-28 melanoma
  TGI: 71.8 µM
SNB-19 CNS
  TGI: 96 µM
UACC-257 melanoma
  TGI: 44.7 µM
UACC-62 melanoma
  TGI: 34.8 µM

## OCCO/N=C1\C(c2c(O)[nH]c3ccccc23)=Nc2ccccc21
A498 renal
  TGI: 0.875 µM
BT-549 breast
  TGI: > 100 µM
HS 578T breast
  TGI: > 100 µM
LOX IMVI melanoma
  TGI: > 100 µM
NCI-H23 lung
  TGI: > 100 µM
OVCAR-8 ovarian
  TGI: > 100 µM
SK-MEL-28 melanoma
  TGI: > 100 µM
SNB-19 CNS
  TGI: > 100 µM
UACC-257 melanoma
  TGI: > 100 µM
UACC-62 melanoma
  TGI: > 100 µM

## N#CC1(C#N)NC(c2cccs2)C(C#N)(C#N)NC1c1cccs1 (stereo not given)
A498 renal
  TGI: 74.6 µM
BT-549 breast
  TGI: 57.4 µM
HS 578T breast
  TGI: > 100 µM
LOX IMVI melanoma
  TGI: 37.3 µM
NCI-H23 lung
  TGI: > 100 µM
OVCAR-8 ovarian
  TGI: > 100 µM
SK-MEL-28 melanoma
  TGI: > 100 µM
SNB-19 CNS
  TGI: > 100 µM
UACC-257 melanoma
  TGI: > 100 µM
UACC-62 melanoma
  TGI: 57.9 µM

## Cc1ccc(OCC2OC(n3cnc4c(Cl)nc(N)nc43)CC2Oc2ccc(C)cc2)cc1 (stereo not given)
A498 renal
  TGI: > 100 µM
BT-549 breast
  TGI: > 100 µM
HS 578T breast
  TGI: > 100 µM
LOX IMVI melanoma
  TGI: > 100 µM
NCI-H23 lung
  TGI: 49.7 µM
OVCAR-8 ovarian
  TGI: > 100 µM
SK-MEL-28 melanoma
  TGI: > 100 µM
SNB-19 CNS
  TGI: > 100 µM
UACC-257 melanoma
  TGI: > 100 µM
UACC-62 melanoma
  TGI: > 100 µM

## Cc1csc(NC23CC4CC(CC(C4)C2)C3)[n+]1C(P(=O)([O-])O)P(=O)(O)O (stereo not given)
A498 renal
  TGI: > 100 µM
BT-549 breast
  TGI: > 100 µM
HS 578T breast
  TGI: > 100 µM
LOX IMVI melanoma
  TGI: > 100 µM
NCI-H23 lung
  TGI: > 100 µM
OVCAR-8 ovarian
  TGI: > 100 µM
SK-MEL-28 melanoma
  TGI: > 100 µM
SNB-19 CNS
  TGI: > 100 µM
UACC-257 melanoma
  TGI: > 100 µM
UACC-62 melanoma
  TGI: > 100 µM

## Cc1ccc(OCC2OC(n3cnc4nc(N)nc(Cl)c43)CC2Oc2ccc(C)cc2)cc1 (stereo not given)
A498 renal
  TGI: 82.3 µM
BT-549 breast
  TGI: > 100 µM
HS 578T breast
  TGI: 45.6 µM
LOX IMVI melanoma
  TGI: > 100 µM
NCI-H23 lung
  TGI: 36.9 µM
OVCAR-8 ovarian
  TGI: 50 µM
SK-MEL-28 melanoma
  TGI: > 100 µM
SNB-19 CNS
  TGI: 30.4 µM
UACC-257 melanoma
  TGI: > 100 µM
UACC-62 melanoma
  TGI: > 100 µM

## O=[N+]([O-])c1ccc2sc(C=Nc3cnccn3)cc2c1
A498 renal
  TGI: 86 µM
BT-549 breast
  TGI: > 100 µM
HS 578T breast
  TGI: 49.5 µM
LOX IMVI melanoma
  TGI: 60.6 µM
NCI-H23 lung
  TGI: > 100 µM
OVCAR-8 ovarian
  TGI: > 100 µM
SK-MEL-28 melanoma
  TGI: > 100 µM
SNB-19 CNS
  TGI: > 100 µM
UACC-257 melanoma
  TGI: > 100 µM
UACC-62 melanoma
  TGI: 53.1 µM

## CC(C)CNc1nc2ncnc(N)c2[nH]1
A498 renal
  TGI: > 100 µM
BT-549 breast
  TGI: > 100 µM
HS 578T breast
  TGI: > 100 µM
LOX IMVI melanoma
  TGI: > 100 µM
NCI-H23 lung
  TGI: > 100 µM
OVCAR-8 ovarian
  TGI: > 100 µM
SK-MEL-28 melanoma
  TGI: > 100 µM
SNB-19 CNS
  TGI: > 100 µM
UACC-257 melanoma
  TGI: > 100 µM
UACC-62 melanoma
  TGI: > 100 µM

## O=C1NC(=O)C(C(CC(=O)c2ccc([N+](=O)[O-])cc2)c2ccccc2)C(=O)N1 (stereo not given)
A498 renal
  TGI: > 100 µM
BT-549 breast
  TGI: > 100 µM
HS 578T breast
  TGI: 31.7 µM
LOX IMVI melanoma
  TGI: 38.7 µM
NCI-H23 lung
  TGI: 95.1 µM
OVCAR-8 ovarian
  TGI: > 100 µM
SK-MEL-28 melanoma
  TGI: > 100 µM
SNB-19 CNS
  TGI: > 100 µM
UACC-257 melanoma
  TGI: > 100 µM
UACC-62 melanoma
  TGI: > 100 µM

## O=C(N/N=C/C=C/c1ccc([N+](=O)[O-])o1)c1cc2ccccc2cc1O
A498 renal
  GI50: 2.48 µM
  TGI: 8.95 µM
BT-549 breast
  GI50: 1.3 µM
  TGI: 3.02 µM
HS 578T breast
  GI50: 3.6 µM
  TGI: > 100 µM
LOX IMVI melanoma
  GI50: 0.356 µM
  TGI: 1.58 µM
NCI-H23 lung
  GI50: 1.02 µM
  TGI: 2.75 µM
OVCAR-8 ovarian
  GI50: 1.45 µM
  TGI: 21.7 µM
SK-MEL-28 melanoma
  GI50: 0.697 µM
  TGI: 2.4 µM
SNB-19 CNS
  GI50: 3.2 µM
  TGI: 24.4 µM
UACC-257 melanoma
  GI50: 1.38 µM
  TGI: 4.21 µM
UACC-62 melanoma
  GI50: 1.03 µM
  TGI: 2.77 µM

## O=C1C[C@@H](C(=O)OCc2ccccc2)NC(=O)C[C@@H](C(=O)OCc2ccccc2)NC(=O)C[C@@H](C(=O)OCc2ccccc2)N1
A498 renal
  TGI: > 95.1 µM
BT-549 breast
  TGI: > 100 µM
HS 578T breast
  TGI: 72.3 µM
LOX IMVI melanoma
  TGI: > 100 µM
NCI-H23 lung
  TGI: > 100 µM
OVCAR-8 ovarian
  TGI: > 100 µM
SK-MEL-28 melanoma
  TGI: > 100 µM
SNB-19 CNS
  TGI: > 100 µM
UACC-257 melanoma
  TGI: > 100 µM
UACC-62 melanoma
  TGI: > 100 µM

## Nc1ccc(S(=O)(=O)c2ccc(NCN3C(=O)NC(=O)C(=O)C3=O)cc2)cc1
A498 renal
  TGI: > 100 µM
BT-549 breast
  TGI: > 100 µM
HS 578T breast
  TGI: > 100 µM
LOX IMVI melanoma
  TGI: > 100 µM
NCI-H23 lung
  TGI: > 100 µM
OVCAR-8 ovarian
  TGI: > 100 µM
SK-MEL-28 melanoma
  TGI: > 100 µM
SNB-19 CNS
  TGI: > 100 µM
UACC-257 melanoma
  TGI: > 100 µM
UACC-62 melanoma
  TGI: > 100 µM

## CC(=O)OCC1OC(SC2=N/C(=C\c3ccc(Br)s3)C(=O)N2CN2CCOCC2)C(OC(C)=O)C(OC(C)=O)C1OC(C)=O (stereo not given)
A498 renal
  TGI: 46 µM
BT-549 breast
  TGI: 38.8 µM
HS 578T breast
  TGI: > 100 µM
LOX IMVI melanoma
  TGI: 26.8 µM
NCI-H23 lung
  TGI: 27.2 µM
OVCAR-8 ovarian
  TGI: 37 µM
SK-MEL-28 melanoma
  TGI: 32.9 µM
SNB-19 CNS
  TGI: 46.7 µM
UACC-257 melanoma
  TGI: 32.2 µM
UACC-62 melanoma
  TGI: 32.1 µM
